# US20190002935A1, “BACTERIAL CELLS WITH IMPROVED TOLERANCE TO POLYAMINES” (DANMARKS TEKNISKE UNIVERSITET, priority 2016, published 2019)
# What was measured:
# E. coli K-12 MG1655 = test: Growth Profiler growth of K-12 MG1655 in a range of concentrations of other polyamines and amine-containing compounds; conditions: for tlag (lag time) / μ (growth rate): Growth Profiler; for screening concentration for which wild-type cells could achieve a growth rate of 0.2-0.3 h^−1: K-12 MG1655, uninhibited growth 0.7-0.9 h^−1 in M9 glucose minimal medium
# Excerpt: For data obtained with the Growth Profiler, improved image analysis was additionally implemented to obtain the updated growth parameters. In the Tables below, for values labeled in columns with “(1)”, integrated pixel values (which were later converted to OD600 using a calibration curve) were obtained directly from image analysis capabilities in the Growth Profiler software. In the Tables below, for values labeled in columns with “(2)”, a new algorithm was implemented that automatically detected the pixel integration region in each well in each image by locating the darkest pixels in each well. These values were converted to OD600 with a calibration run in the same manner. The new algorithm provided for an improved accuracy in determining the growth rate, since it eliminated a slowly oscillating frequency that was sometimes observed in the original data, potentially related to the practical setup when scanning the plates.
# Additionally, each evolved isolate was tested for cross-tolerance toward other polyamines and amine-containing compounds of biotechnological interest. First, K-12 MG1655 was tested in the Growth Profiler screening format for growth in the presence of a range of concentrations of each compound: 1,3-diaminopropane, 1,5-diaminopentane (cadaverine), spermidine, citrulline, ethylenediamine, carnitine, and ornithine. Variable concentrations of these compounds elicited growth inhibition in E. coli K-12 MG1655 (Table 36). […] The compounds citrulline and ornithine are polyamine-containing amino acids. […] Among the only exceptions were PUTR7-1 in citrulline and PUTR5-1 and PUTR6-2 in ornithine.
# [1] = system: Escherichia coli K-12 MG1655; test: Screening for tolerance in wild-type cells (Biolector, varying concentrations of putrescine or HMDA); format: cell-based; conditions: for mean (1) tlag (lag time) / mean (1) μ (growth rate) / mean (2) tlag (lag time) / mean (2) μ (growth rate): K-12 MG1655; for mean (1) tlag (lag time) / mean (1) μ (growth rate): software version (1); for mean (2) tlag (lag time) / mean (2) μ (growth rate): software version (2)
# Method: Escherichia coli K-12 MG1655 was grown overnight in M9 minimal medium+1% glucose and subcultured the following morning to an initial OD600 of 0.05 in M9+1% glucose. Cells were grown to mid-exponential phase (OD600 0.7-1.0) and were back-diluted with fresh medium to an OD600 of 0.7. […] The culture volume in each well was 1.4 mL.
# For data obtained with the Biolector microbioreactor system, self-baselined growth series were imported directly into a custom software platform that automatically detects growth phases and exports growth rates and lag times.
# [2] = K-12 MG1655, 25 g/L of the compound
# [3] = K-12 MG1655, 30 g/L of the compound
# [4] = K-12 MG1655, 40 g/L of the compound
# [5] = K-12 MG1655, 45 g/L of the compound
# [6] = K-12 MG1655, 50 g/L of the compound
# [7] = K-12 MG1655, 60 g/L of the compound
# [8] = K-12 MG1655, 75 g/L of the compound
# [9] = K-12 MG1655, 5 g/L of the compound
# [10] = K-12 MG1655, 10 g/L of the compound
# [11] = K-12 MG1655, 20 g/L of the compound
smiles,measurement,setting,value
NC(=O)NCCC[C@H](N)C(=O)O [citrulline],tlag (lag time),E. coli K-12 MG1655; [2],6.7 h
same,μ (growth rate),E. coli K-12 MG1655; [2],0.759 h⁻¹
same,tlag (lag time),E. coli K-12 MG1655; [3],7.0 h
same,μ (growth rate),E. coli K-12 MG1655; [3],0.702 h⁻¹
same,tlag (lag time),E. coli K-12 MG1655; [4],7.5 h
same,μ (growth rate),E. coli K-12 MG1655; [4],0.677 h⁻¹
same,tlag (lag time),E. coli K-12 MG1655; [5],8.6 h
same,μ (growth rate),E. coli K-12 MG1655; [5],0.508 h⁻¹
same,tlag (lag time),E. coli K-12 MG1655; [6],9.2 h
same,μ (growth rate),E. coli K-12 MG1655; [6],0.538 h⁻¹
same,tlag (lag time),E. coli K-12 MG1655; [7],10.4 h
same,μ (growth rate),E. coli K-12 MG1655; [7],0.437 h⁻¹
same,tlag (lag time),E. coli K-12 MG1655; [8],12.4 h
same,μ (growth rate),E. coli K-12 MG1655; [8],0.355 h⁻¹
same,screening concentration for which wild-type cells could achieve a growth rate of 0.2-0.3 h^−1,E. coli K-12 MG1655,80 g/L
"NCCN [ethylenediamine, 1,2-diaminoethane]",tlag (lag time),E. coli K-12 MG1655; [9],7.0 h
same,μ (growth rate),E. coli K-12 MG1655; [9],0.689 h⁻¹
same,tlag (lag time),E. coli K-12 MG1655; [10],8.5 h
same,μ (growth rate),E. coli K-12 MG1655; [10],0.614 h⁻¹
same,tlag (lag time),E. coli K-12 MG1655; [11],32.9 h
same,μ (growth rate),E. coli K-12 MG1655; [11],0.152 h⁻¹
same,μ (growth rate),E. coli K-12 MG1655; [2],0.000 h⁻¹
same,screening concentration for which wild-type cells could achieve a growth rate of 0.2-0.3 h^−1,E. coli K-12 MG1655,18 g/L
NCCC[C@H](N)C(=O)O [ornithine],tlag (lag time),E. coli K-12 MG1655; [9],8.2 h
same,μ (growth rate),E. coli K-12 MG1655; [9],0.439 h⁻¹
same,tlag (lag time),E. coli K-12 MG1655; [10],17.1 h
same,μ (growth rate),E. coli K-12 MG1655; [10],0.260 h⁻¹
same,tlag (lag time),E. coli K-12 MG1655; [11],44.2 h
same,μ (growth rate),E. coli K-12 MG1655; [11],0.214 h⁻¹
same,tlag (lag time),E. coli K-12 MG1655; [2],53.2 h
same,μ (growth rate),E. coli K-12 MG1655; [2],0.150 h⁻¹
same,tlag (lag time),E. coli K-12 MG1655; [3],82.6 h
same,μ (growth rate),E. coli K-12 MG1655; [3],0.076 h⁻¹
same,μ (growth rate),E. coli K-12 MG1655; [4],0.000 h⁻¹
same,screening concentration for which wild-type cells could achieve a growth rate of 0.2-0.3 h^−1,E. coli K-12 MG1655,10 g/L
"NCCCCN [putrescine, butane-1,4-diamine]",mean (1) tlag (lag time),[1]; 10 g/L,1.4 h
same,mean (1) μ (growth rate),[1]; 10 g/L,0.698 h⁻¹
same,mean (2) tlag (lag time),[1]; 10 g/L,1.0 h
same,mean (2) μ (growth rate),[1]; 10 g/L,0.538 h⁻¹
same,mean (1) tlag (lag time),[1]; 20 g/L,2.2 h
same,mean (1) μ (growth rate),[1]; 20 g/L,0.577 h⁻¹
same,mean (2) tlag (lag time),[1]; 20 g/L,1.5 h
same,mean (2) μ (growth rate),[1]; 20 g/L,0.392 h⁻¹
same,mean (1) tlag (lag time),[1]; 30 g/L,3.4 h
same,mean (1) μ (growth rate),[1]; 30 g/L,0.350 h⁻¹
same,mean (2) tlag (lag time),[1]; 30 g/L,6.2 h
same,mean (2) μ (growth rate),[1]; 30 g/L,0.317 h⁻¹
same,mean (1) tlag (lag time),[1]; 40 g/L,12.3 h
same,mean (1) μ (growth rate),[1]; 40 g/L,0.108 h⁻¹
same,mean (2) tlag (lag time),[1]; 40 g/L,25.8 h
same,mean (2) μ (growth rate),[1]; 40 g/L,0.148 h⁻¹
same,mean (1) tlag (lag time),[1]; 50 g/L,19.8 h
same,mean (1) μ (growth rate),[1]; 50 g/L,0.023 h⁻¹
same,mean (2) μ (growth rate),[1]; 50 g/L,0.000 h⁻¹
same,mean (1) μ (growth rate),[1]; 75 g/L,0.000 h⁻¹
same,mean (2) μ (growth rate),[1]; 75 g/L,0.000 h⁻¹
same,mean (1) μ (growth rate),[1]; 100 g/L,0.000 h⁻¹
same,mean (2) μ (growth rate),[1]; 100 g/L,0.000 h⁻¹
same,maximum measured concentration at which K-12 MG1655 can grow,"[1]; M9+1% glucose, Biolector",40 g/L
"NCCCCNCCCN [spermidine, N-(3-aminopropyl)-1,4-diaminobutane]",screening concentration for which wild-type cells could achieve a growth rate of 0.2-0.3 h^−1,E. coli K-12 MG1655,40 g/L
